Measurements taken from patent US20210085742A1, “FRUIT EXTRACT AND USES THEREOF” (THE UNIVERSITY OF NOTTINGHAM, priority 2017, published 2021).

Experiments:
Lung Carcinoma (A549) = experiment: anti-proliferative activity, wst-1, lung cancer cell line; assay type: cell-based, human
Protocol: Human tissue culture experiments—lung (A549), ovarian (OVCAR-3, SKOV), breast (MDA-MB-231) and prostate (PC-3) cancer cell lines were chosen to provide a broad profile of different cancer cell types and their response to treatment with the natural compound. Cell were seeded as a mono-layer in 96 well flat bottom Nunc tissue culture plates at a density of 10,000 cells per well and supplemented with RPMI 1640 media (Sigma Aldrich) containing 10% foetal calf serum, penicillin and streptomycin. Cells were then treated for 72 hours with a range of concentrations of MGDG either DMSO soluble, media soluble sample or the pure synthetic molecule. Four biological repetitions were tested for each dose. Activity of each treatment was then assessed using wst-1 reagent (Roche) as per the manufacturer's instructions. Data was visualised using a victor plate reader (Perkin Elmer) at a wavelength of 450 nm.

mice = experiment: mouse in vivo toxicity study; conditions: oral, 2000 mg/kg everyday for 14 days vs water control
IL-6 = IL-6 inflammatory activity in IL-1α+TNFα treated cells; assay type: cell-based; conditions: dose of about 10 μg
cancer cells = experiment: dose calculation for inhibition of growth of cancer cells; design: species or system human
[1] = tested on: Neuroligin 2 5'UTR luciferase reporter; experiment: Neuroligin 2 5'UTR firefly luciferase reporter; assay type: cell-based
Excerpt: (§1) Transient transfection conditions and luciferase reporter constructs—Firefly luciferase reporter plasmids containing the 5′ untranslated regions (UTRs) of the genes Neuroligin 1 and Neuroligin 2 were a kind gift from Professor Nahum Sonenberg (McGill) and used as described by Gkogkas et al, 2013. Nature, 17; 371-377.
(§2) Cells were transfected using FuGene 6 (Roche) following the manufacturer's instructions. The activities of firefly and Renilla luciferase in lysates prepared from transfected cells were measured using a commercially available Luciferase reporter assay system (Promega) and light emission was measured over a 10 sec interval using either a TECAN luminometer. For each experiment described, data was obtained from a minimum of at least 3 biological repetitions per treatment.

[2] = tested on: Neuroligin 1 (5'UTR) luciferase reporter; experiment: Neuroligin 1 5'UTR firefly luciferase reporter; assay type: cell-based
Excerpt: as §1, §2

CC/C=C\C/C=C\C/C=C\CCCCCCCC(=O)OC[C@H](COC1OC(CO)C(O)C(O)C1O)OC(=O)CCCCCCC/C=C\C/C=C\C/C=C\CC (some centres unmarked) [MGDG, monogalactosyl diacylglycerol]
anti-cancer / anti-proliferative activity (Lung Carcinoma (A549)): anti-proliferative effects
survival or weight / toxicity (mice): no difference in survival or weight
reduction of IL-6 inflammatory activity (IL-6): ~80%
inhibition in the growth of cancer cells (cancer cells; daily dose of approximately 11 mgs, human): 50%
inhibition in the growth of cancer cells (cancer cells; dose of approximately 5.5 mgs in a 60kg human): 30%
effect on Neuroligin 2 reporter activity [1]: unaffected
effect on Neuroligin 1 reporter [2]: can be dampened
reduction in the levels of Neuroligin 1 ([2]; 10 μM dose, luciferase reporter system): about 35%
